Consider 1 compound from patent US9067894B1, “Compound, composition, and method of activating GIRK potassium channel and use of same for treating conditions of interest” (Vanderbilt University, priority 2013, dated 2015).

Usually inhibition stands for the change of the read-out against control, counted positive when it falls. One may read the EC50 as the concentration that produces a half-maximal response.

One experiment has as its target T1, Transporter, DAT (Homo sapiens, UniProt Q01959).
T1 construct: Ricerca (contract panel)
The experiment in a line: Radioligand displacement (Ricerca). The format is binding.

For another experiment, the target named is T2, Serotonin 5-HT1A (Homo sapiens, UniProt P08908).
T2 construct: Ricerca (contract laboratory that ran the panel)
T2 sequence (P08908 whole entry): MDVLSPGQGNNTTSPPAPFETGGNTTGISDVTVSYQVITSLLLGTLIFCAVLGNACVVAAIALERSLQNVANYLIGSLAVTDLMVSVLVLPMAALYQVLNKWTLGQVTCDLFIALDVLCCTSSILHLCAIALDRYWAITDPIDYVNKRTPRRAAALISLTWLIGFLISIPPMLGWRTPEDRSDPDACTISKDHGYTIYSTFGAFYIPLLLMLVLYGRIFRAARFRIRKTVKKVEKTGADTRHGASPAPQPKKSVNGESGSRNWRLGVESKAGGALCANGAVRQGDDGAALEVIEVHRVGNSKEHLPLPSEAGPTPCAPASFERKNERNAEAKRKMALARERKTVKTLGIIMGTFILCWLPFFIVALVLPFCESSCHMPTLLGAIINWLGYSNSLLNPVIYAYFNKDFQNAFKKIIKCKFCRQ
Nature of the experiment: Radioligand displacement (Ricerca). The format is binding. (Displacement assays read how much labelled ligand stays bound in the presence of the test substance.)

Another experiment has as its target T3, Adenosine A1 (Homo sapiens, UniProt P30542).
T3 construct: Ricerca (contract assay)
The experiment in a line: Radioligand displacement (Ricerca). The format is binding.

Another experiment addresses T4, PAF (Homo sapiens, UniProt P25105).
T4 construct: Ricerca (contract laboratory that ran the panel)
Nature of the experiment: Radioligand displacement (Ricerca). The format is binding.

The next experiment deals with T5, Histamine H1 (Homo sapiens, UniProt P35367).
T5 construct: Ricerca
T5 sequence (P35367 whole entry): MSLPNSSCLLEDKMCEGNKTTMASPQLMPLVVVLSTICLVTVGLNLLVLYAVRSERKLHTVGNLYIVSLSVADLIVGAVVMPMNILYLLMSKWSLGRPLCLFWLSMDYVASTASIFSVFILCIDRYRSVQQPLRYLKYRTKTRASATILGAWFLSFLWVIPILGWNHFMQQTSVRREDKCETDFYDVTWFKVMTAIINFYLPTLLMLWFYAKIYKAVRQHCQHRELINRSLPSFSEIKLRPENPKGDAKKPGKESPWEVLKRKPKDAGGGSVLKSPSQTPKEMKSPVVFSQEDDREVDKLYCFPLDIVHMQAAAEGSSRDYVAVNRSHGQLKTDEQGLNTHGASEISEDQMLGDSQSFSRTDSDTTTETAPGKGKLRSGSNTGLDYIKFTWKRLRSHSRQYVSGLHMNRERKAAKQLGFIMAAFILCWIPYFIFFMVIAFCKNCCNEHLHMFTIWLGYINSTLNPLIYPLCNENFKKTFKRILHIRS
Nature of the experiment: Radioligand displacement (Ricerca). The format is binding.

Another experiment concerns the target T6, Dopamine D2s (Homo sapiens, UniProt P14416).
T6 construct: Ricerca
The experiment in a line: Radioligand displacement (Ricerca). Format: binding.

The next experiment concerns the target T7, Dopamine D1 (Homo sapiens, UniProt P21728).
T7 construct: Ricerca
Nature of the experiment: Radioligand displacement (Ricerca). Format: binding.

Another experiment deals with T8, Transporter, NET (Homo sapiens, UniProt P23975).
T8 construct: Ricerca (contract panel)
T8 sequence (P23975 whole entry): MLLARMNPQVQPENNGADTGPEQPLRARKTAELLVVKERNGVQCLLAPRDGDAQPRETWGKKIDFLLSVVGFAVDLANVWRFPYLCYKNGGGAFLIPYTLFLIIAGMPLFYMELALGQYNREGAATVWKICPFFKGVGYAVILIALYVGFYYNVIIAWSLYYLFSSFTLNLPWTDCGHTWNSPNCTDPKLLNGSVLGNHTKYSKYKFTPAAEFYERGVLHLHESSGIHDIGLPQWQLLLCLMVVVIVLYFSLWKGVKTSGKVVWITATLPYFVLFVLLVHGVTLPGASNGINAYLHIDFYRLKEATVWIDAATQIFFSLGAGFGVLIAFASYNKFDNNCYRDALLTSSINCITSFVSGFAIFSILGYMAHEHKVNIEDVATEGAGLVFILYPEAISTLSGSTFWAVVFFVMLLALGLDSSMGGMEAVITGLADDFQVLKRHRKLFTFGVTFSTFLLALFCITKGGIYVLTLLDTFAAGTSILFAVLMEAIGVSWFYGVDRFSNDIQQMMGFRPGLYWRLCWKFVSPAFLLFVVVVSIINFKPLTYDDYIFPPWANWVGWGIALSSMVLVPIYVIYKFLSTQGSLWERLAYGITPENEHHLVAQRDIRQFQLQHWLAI
Nature of the experiment: Radioligand displacement (Ricerca). Format: binding.

In the next experiment the target is T9, GIRK1/2 (Homo sapiens, UniProt P48051+P48549).
T9 sequence (P48549 1-501): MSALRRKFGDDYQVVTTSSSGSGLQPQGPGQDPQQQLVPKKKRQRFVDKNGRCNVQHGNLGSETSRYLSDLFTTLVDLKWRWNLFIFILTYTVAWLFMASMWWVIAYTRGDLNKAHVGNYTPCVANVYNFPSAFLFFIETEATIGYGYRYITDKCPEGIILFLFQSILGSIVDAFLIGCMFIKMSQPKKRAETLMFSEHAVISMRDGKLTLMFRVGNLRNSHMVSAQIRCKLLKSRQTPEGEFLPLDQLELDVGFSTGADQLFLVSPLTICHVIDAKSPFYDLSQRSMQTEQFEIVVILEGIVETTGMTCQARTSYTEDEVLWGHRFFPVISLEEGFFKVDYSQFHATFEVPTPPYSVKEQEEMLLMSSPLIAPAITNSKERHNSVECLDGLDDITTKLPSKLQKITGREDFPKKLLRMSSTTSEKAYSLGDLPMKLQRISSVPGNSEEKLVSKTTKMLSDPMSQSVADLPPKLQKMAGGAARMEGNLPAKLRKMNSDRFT
T9 sequence (P48051 1-423): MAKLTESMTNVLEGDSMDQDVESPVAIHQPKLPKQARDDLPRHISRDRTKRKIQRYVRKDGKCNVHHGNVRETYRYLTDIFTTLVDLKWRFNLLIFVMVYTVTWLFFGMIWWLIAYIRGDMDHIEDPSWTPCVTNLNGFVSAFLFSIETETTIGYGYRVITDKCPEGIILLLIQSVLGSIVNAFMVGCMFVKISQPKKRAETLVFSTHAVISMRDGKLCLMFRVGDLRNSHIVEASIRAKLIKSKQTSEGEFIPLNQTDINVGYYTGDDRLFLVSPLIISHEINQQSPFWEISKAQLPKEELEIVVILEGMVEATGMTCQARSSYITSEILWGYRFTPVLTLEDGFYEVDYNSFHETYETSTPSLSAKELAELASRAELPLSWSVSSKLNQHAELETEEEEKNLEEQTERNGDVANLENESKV
The experiment in a line: Whole-cell voltage-clamp, GIRK1/2-expressing HEK-293 cells. The format is cell-based. Set-up: host or cells: HEK-293. From the text: Cell Line Construction and Cell Culture. HEK-293 cells co-expressing human GIRK1/2 and rat mGlu8 were generated as previously described (Niswender et al., 2008). A HEK-293 cell line (ATCC, Manassas, Va.) expressing human GIRK1 and human GIRK2 was constructed by transfecting HEK-293 cells with GIRK1 and GIRK2 (Origene, Rockville, Md.) cloned into the pBudCE4.1 vector (Life Technologies, Carlsbad, Calif.) using FuGene 6 (Promega, Madison, Wis.) transfection reagent. Unless otherwise noted, other ion channel-expressing cells were prepared by transfecting HEK-293 cells with individual or combinations of subunits: GIRK1, pCMV6-A-BSD; GIRK2, pCMV6-A-puro; GIRK3, pCMV6-A-hygro; GIRK4, pCMV6-A-AC; Kv7.4, pIRESneo3. The Kir2.1 and hERG-expressing cell lines were made by transfecting T-REx-293 cells (Life Technologies, Carlsbad, Calif.) with Kir2.1 and Kv11.1, respectively, cloned into pcDNA5TO. Monoclonal cell lines were produced by limiting-dilution cloning of antibiotic-resistant cells and functional selection using the thallium flux assay described below. Unless otherwise noted, cells were maintained in Minimal Essential Medium, Alpha Medium (Mediatech, Manassas, Va.) supplemented with 10% fetal bovine serum (Sigma-Aldrich, Saint Louis, Mo.) and GlutaGro (Mediatech, Manassas, Va.), referred to henceforth as cell culture medium. […]
A single-cell suspension of HEK-293 cells stably transfected with the appropriate ion channels were plated into TC-treated 35 mm polystyrene dishes at ˜15% confluence and incubated overnight in a 5% CO2 cell culture incubator at 37° C. […] Whole cell currents were recorded in 20K extracellular solution at −70 mV using a Pico 1 amplifier (Tecella, Foothill Ranch, Calif.) controlled by WINWCP 4.X (University of Strathclyde, Glasgow, Scotland, UK). […] One day after transfection, cells were plate into 35 mm polystyrene dishes, incubated and recorded as described above. […]
Voltage-clamp data were analyzed by converting current amplitudes to current density by dividing by each cell's membrane capacitance estimated from capacitance compensation. […]

T3 sequence (P30542 whole entry): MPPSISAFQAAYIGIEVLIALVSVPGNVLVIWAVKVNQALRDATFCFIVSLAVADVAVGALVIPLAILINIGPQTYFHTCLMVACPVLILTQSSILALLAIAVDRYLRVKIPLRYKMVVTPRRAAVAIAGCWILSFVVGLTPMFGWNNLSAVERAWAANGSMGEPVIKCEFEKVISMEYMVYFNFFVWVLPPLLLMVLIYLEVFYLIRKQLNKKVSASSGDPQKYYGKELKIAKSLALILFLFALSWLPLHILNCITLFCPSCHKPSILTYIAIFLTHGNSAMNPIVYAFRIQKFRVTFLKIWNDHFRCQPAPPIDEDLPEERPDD
T4 sequence (P25105 whole entry): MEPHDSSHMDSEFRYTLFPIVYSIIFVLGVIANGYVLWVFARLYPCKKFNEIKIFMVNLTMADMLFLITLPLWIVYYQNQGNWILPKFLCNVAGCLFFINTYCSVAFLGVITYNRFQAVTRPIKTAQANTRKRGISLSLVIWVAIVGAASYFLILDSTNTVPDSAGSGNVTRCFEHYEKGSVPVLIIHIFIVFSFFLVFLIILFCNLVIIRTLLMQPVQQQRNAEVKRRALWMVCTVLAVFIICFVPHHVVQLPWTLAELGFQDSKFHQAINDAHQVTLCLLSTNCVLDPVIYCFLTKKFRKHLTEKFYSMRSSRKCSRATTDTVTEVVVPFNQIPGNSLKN
T6 sequence (P14416 1-414 isoform P14416-2): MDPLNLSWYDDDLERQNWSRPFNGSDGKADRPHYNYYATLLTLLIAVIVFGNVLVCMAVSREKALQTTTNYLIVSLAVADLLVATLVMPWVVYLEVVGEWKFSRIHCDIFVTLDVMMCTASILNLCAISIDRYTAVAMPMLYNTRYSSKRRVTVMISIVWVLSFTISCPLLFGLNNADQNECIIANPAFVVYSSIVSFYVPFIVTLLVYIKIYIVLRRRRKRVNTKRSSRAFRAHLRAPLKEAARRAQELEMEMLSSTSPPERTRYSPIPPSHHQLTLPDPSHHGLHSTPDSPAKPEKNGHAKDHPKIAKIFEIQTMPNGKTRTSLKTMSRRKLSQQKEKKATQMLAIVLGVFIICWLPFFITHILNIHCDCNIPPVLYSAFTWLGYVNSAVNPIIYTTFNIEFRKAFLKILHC
T7 sequence (P21728 whole entry): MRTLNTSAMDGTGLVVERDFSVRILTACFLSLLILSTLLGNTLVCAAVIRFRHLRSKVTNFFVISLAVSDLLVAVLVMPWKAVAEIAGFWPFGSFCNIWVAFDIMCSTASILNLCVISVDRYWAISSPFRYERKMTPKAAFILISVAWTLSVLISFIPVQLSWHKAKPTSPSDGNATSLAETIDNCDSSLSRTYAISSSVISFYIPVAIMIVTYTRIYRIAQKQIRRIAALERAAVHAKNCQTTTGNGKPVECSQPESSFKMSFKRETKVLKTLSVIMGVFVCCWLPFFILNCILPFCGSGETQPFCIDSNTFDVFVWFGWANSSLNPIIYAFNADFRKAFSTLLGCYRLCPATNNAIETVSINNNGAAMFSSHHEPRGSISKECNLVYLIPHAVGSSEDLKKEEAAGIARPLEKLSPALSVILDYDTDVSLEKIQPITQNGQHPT
T1 sequence (Q01959 whole entry): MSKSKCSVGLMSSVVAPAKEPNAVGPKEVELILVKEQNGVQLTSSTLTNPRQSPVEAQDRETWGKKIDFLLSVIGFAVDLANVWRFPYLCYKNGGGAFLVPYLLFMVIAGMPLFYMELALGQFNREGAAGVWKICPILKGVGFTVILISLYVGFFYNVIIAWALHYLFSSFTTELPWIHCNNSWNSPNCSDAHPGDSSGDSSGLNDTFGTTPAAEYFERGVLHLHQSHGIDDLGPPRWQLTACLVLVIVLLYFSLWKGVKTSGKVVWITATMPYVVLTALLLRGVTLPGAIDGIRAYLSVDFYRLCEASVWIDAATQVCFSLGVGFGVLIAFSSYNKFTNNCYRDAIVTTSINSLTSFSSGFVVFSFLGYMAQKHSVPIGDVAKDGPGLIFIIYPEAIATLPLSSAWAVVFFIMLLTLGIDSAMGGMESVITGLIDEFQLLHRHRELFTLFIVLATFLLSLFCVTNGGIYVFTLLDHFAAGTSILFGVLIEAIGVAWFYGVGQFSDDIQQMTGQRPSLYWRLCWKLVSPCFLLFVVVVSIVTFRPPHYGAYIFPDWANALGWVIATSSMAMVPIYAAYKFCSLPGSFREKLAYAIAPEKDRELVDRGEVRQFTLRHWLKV

For the compound `Cc1cc(NC(=O)Nc2ccc(F)c(F)c2)n(-c2ccccc2)n1` [VU0456810, 1-(3,4-difluorophenyl)-3-(3-methyl-1-phenyl-1H-pyrazol-5-yl)urea], the inhibition at 10 µM on Transporter, DAT was 12%; at Serotonin 5-HT1A, 0%; at Adenosine A1 it was 6%; at PAF, 2%; on Histamine H1, -7%; at Dopamine D2s, 16%. In addition, the inhibition at 10 µM at Dopamine D1 was -5%; at Transporter, NET it was 15%. For the same compound, the “time to 90% of maximal current amplitude after application” value at GIRK1/2 (10 μM, local superfusion) is recorded as “approximately 2 seconds”. Besides, on GIRK1/2 (after application was terminated), the washout time result is given as “nearly a minute”. Further, the EC50 at GIRK1/2 (cell line GIRK1-2, average ± SEM) is 584 ± 175 nM.
